Legend:
[1] = biological target: T1, BTK (Homo sapiens, UniProt Q06187); assay: BTK inhibitory activity, ADP-Glo + BTK Kinase enzyme system kit (Promega); format: biochemical; conditions: BTK enzyme 1 ng/uL, ATP 10 uM, 15 min preincubation, luminescence, duplicate
T1 construct: purchased Promega
Method: (§1) The inhibitory activity against BTK and ITK of the compounds prepared in Examples above were measured as follows.
(§2) The inhibitory activity against BTK was evaluated using ‘ADP-Glo™+BTK Kinase enzyme system’ kit from Promega. […] 5 uL of substrate and 5 uL of ATP prepared at a final concentration of 10 uM were added to all wells of the plate after completion of the reaction, and allowed to react at 30° C. for 1 hour. All wells of the plate after completion of the reaction were treated with 25 uL of ADP-Glo™ reagent and reacted at 30° C. for 40 minutes. Then, 50 uL of the kinase detection buffer was applied to all wells of the plate, and then the light was blocked and reacted at 30° C. for 30 minutes. For the plate for which all reactions were completed, the luminescence was measured and the results were calculated. The evaluation was performed in duplicate. The respective values of negative and positive controls, depending on whether the enzymes were added without treatment of the compound, were determined, and IC50 was calculated based on the values.

[2] = biological target: T2, ITK (Homo sapiens, UniProt Q08881); assay: ITK inhibitory activity, ADP-Glo + ITK Kinase enzyme system kit (Promega); format: biochemical; conditions: ITK enzyme 0.4 ng/uL, ATP 25 uM, 15 min preincubation, luminescence, duplicate
T2 construct: purchased Promega
T2 sequence (Q08881 1-620): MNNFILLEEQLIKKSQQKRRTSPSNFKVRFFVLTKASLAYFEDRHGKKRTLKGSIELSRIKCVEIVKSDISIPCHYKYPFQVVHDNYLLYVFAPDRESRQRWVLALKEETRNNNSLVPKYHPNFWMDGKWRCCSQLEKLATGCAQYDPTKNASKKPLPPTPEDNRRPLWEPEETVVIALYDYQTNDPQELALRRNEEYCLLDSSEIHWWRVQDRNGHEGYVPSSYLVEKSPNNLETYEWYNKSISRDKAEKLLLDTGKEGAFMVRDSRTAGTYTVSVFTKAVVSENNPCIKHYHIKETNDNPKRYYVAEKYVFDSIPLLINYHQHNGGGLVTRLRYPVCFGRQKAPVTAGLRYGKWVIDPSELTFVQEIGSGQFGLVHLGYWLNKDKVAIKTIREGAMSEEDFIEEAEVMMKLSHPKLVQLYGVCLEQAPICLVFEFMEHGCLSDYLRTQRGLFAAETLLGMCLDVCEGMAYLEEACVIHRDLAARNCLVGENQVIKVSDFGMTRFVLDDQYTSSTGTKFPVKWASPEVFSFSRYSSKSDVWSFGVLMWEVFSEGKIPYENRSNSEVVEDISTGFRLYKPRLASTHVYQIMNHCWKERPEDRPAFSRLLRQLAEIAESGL
Method: as §1
as §2, with “ITK” for “BTK”, “‘ADP-Glo™+ITK” for “‘ADP-Glo™+BTK”, “25” for “10”

T1 sequence (Q06187 whole entry): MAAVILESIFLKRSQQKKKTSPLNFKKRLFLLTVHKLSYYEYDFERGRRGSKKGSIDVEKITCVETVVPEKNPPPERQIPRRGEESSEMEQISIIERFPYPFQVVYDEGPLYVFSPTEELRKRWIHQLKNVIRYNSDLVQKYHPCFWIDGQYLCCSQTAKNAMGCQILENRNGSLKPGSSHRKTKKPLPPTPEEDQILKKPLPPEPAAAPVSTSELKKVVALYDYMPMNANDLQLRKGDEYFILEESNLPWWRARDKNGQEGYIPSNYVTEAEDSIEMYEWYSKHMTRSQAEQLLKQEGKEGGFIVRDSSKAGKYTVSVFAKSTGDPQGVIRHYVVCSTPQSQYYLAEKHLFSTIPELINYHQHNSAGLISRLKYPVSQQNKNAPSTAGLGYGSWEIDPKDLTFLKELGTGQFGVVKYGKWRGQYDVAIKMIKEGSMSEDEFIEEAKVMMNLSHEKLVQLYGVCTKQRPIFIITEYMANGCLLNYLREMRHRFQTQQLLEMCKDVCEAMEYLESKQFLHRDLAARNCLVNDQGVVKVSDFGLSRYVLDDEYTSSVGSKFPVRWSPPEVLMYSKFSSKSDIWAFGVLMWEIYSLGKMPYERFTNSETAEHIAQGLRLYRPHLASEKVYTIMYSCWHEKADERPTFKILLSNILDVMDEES

SMILES | IC50 [1] [nM] | IC50 [2] [nM]
C=CC(=O)N1CCC[C@@H](n2nc(-c3ccc(C(=O)Nc4ccccc4)cc3)c3c(N)ncc(-c4cnn(CCN(C)C)c4)c32)C1 [Example 36, (R)-4-(1-(1-acryloylpiperidin-3-yl)-4-amino-7-(1-(2-(dimethylamino)ethyl)-1H-pyrazol-4-yl)-1H-pyrazolo[4,3-c]pyridin-3-yl)-N-phenylbenzamide] | 1.5 | 89
C=CC(=O)N1CCC[C@@H](n2nc(-c3ccc(C(=O)Nc4ccccc4)cc3)c3c(N)ncc(-c4cnn(CCN5CCCC5)c4)c32)C1 [Example 37, (R)-4-(1-(1-acryloylpiperidin-3-yl)-4-amino-7-(1-(2-(pyrrolidin-1-yl)ethyl)-1H-pyrazol-4-yl)-1H-pyrazolo[4,3-c]pyridin-3-yl)-N-phenyl benzamide] | 3 | 91.3
C=CC(=O)N1CCC[C@@H](n2nc(-c3ccc(C(=O)Nc4ccccc4)cc3)c3c(N)ncc(-c4cnn(CCN5CCOCC5)c4)c32)C1 [Example 38, (R)-4-(1-(1-acryloylpiperidin-3-yl)-4-amino-7-(1-(2-morpholinoethyl)-1H-pyrazol-4-yl)-1H-pyrazolo[4,3-c]pyridin-3-yl)-N-phenyl benzamide] | 2.6 | 186
C=CC(=O)N1CCC[C@H](n2nc(-c3ccc(C(=O)Nc4ccccn4)cc3)c3c(N)nccc32)C1 [Example 39, (S)-4-(1-(1-acryloylpiperidin-3-yl)-4-amino-1H-pyrazolo[4,3-c]pyridin-3-yl)-N-(pyridin-2-yl)benzamide] | 3.5 | > 1000
C=CC(=O)N1CCC[C@@H](n2nc(-c3ccc(C(=O)Nc4ccccn4)cc3F)c3c(N)nccc32)C1 [Example 40, (R)-4-(1-(1-acryloylpiperidin-3-yl)-4-amino-1H-pyrazolo[4,3-c]pyridin-3-yl)-3-fluoro-N-(pyridin-2-yl)benzamide] | 2.7 | 6.4
C=CC(=O)N1CCC[C@@H](n2nc(-c3ccc(C(=O)Nc4cc(F)ccn4)cc3)c3c(N)nccc32)C1 [Example 41, (R)-4-(1-(1-acryloylpiperidin-3-yl)-4-amino-1H-pyrazolo[4,3-c]pyridin-3-yl)-N-(4-fluoropyridin-2-yl)benzamide] | 1.5 | 10.1
C=CC(=O)N1CCC[C@@H](n2nc(-c3ccc(C(=O)N(C(=O)C=C)c4cc(F)ccn4)cc3)c3c(N)nccc32)C1 [Example 42, (R)—N-acryloyl-4-(1-(1-acryloylpiperidin-3-yl)-4-amino-1H-pyrazolo[4,3-c]pyridin-3-yl)-N-(4-fluoropyridin-2-yl)benzamide] | 66.3 | 241
C=CC(=O)N1CCC[C@@H](n2nc(-c3ccc(C(=O)Nc4ccccn4)cc3)c3c(N)ncc(Nc4ccccc4)c32)C1 [Example 43, (R)-4-(1-(1-acryloylpiperidin-3-yl)-4-amino-7-(phenylamino)-1H-pyrazolo[4,3-c]pyridin-3-yl)-N-(pyridin-2-yl)benzamide] | 2.5 | 146
C=CC(=O)N1CCC[C@@H](n2nc(-c3ccc(C(=O)Nc4ccccc4)cc3)c3c(N)ncc(C)c32)C1 [Example 44, (R)-4-(1-(1-acryloylpiperidin-3-yl)-4-amino-7-methyl-1H-pyrazolo[4,3-c]pyridin-3-yl)-N-phenyl benzamide] | > 1.56 | 105
C=CC(=O)N1CCC[C@@H](n2nc(-c3ccc(C(=O)Nc4ccccn4)cc3)c3c(N)ncc(C)c32)C1 [Example 45, (R)-4-(1-(1-acryloylpiperidin-3-yl)-4-amino-7-methyl-1H-pyrazolo[4,3-c]pyridin-3-yl)-N-(pyridin-2-yl)benzamide] | 11.2 | 66.8
C=CC(=O)N1CC[C@H](n2nc(-c3ccc(C(=O)Nc4ccccc4)cc3)c3c(N)ncc(-c4cnn(C(F)F)c4)c32)C1 [Example 46, (S)-4-(1-(1-acryloylpyrrolidin-3-yl)-4-amino-7-(1-(difluoromethyl)-1H-pyrazol-4-yl)-1H-pyrazolo[4,3-c]pyridin-3-yl)-N-phenylbenzamide] | > 400 | > 1000

From patent US11180496B2 (Daewoong Pharmaceutical Co., Ltd., priority 2017, dated 2021)
